Measured values taken from article PMC10745882, “Investigation of Drug-Interaction Potential for Arthritis Dietary Supplements: Chondroitin Sulfate, Glucosamine, and Methylsulfonylmethane” (Molecules, 2023).
Where two headings read alike, the source gives them in different places.

Columns and labels:
CYPs [1] = conditions: drugs used for OA; ref as in Refs of Table 4, 17-36; cited from earlier work
[2] = parameters: method as in doi:10.4172/2155-9600.1000748, PMID 16168682, PMID 19912983; conditions: cited from earlier work
CYP3A4(M) = biological target: T1, CYP3A4(M) (Homo sapiens, UniProt P08684); assay: CYP inhibition assay in human liver microsomes (LC-MS/MS cocktail), midazolam to 1-OH-midazolam; format: in vitro ADME
T1 construct: Pooled human liver microsomes were purchased from BD Gentest; tissue BD Gentest; host or cells: pooled human liver microsomes
Procedure: For the experimental method, the reference method was used. […] The reaction mixture, excluding NGS, underwent pre-incubation at 37 °C for 5 min, followed by further incubation with NGS for 30 min in a water bath. […] Post incubation, the reaction was halted by adding 50 µL ice-cold 1% formic acid acetonitrile. After centrifugation at 13,200 rpm for 5 min, the supernatant was collected from the sample and subjected to analysis via an LC-MS/MS system. All experiments were performed in triplicate.
For the experimental method, the reference method was used. […] The HPLC mobile phases comprised (A) 0.1% formic acid and (B) 0.1% formic acid in 90% acetonitrile. […] The total run time was 11.0 min, and the injection volume was 5 µL. Mass detection was conducted in the positive ion mode using multiple reaction monitoring (MRM). Specific MRM transitions for each analyte are detailed in Table S4.

CYP3A4(T) = biological target: T2, CYP3A4(T) (Homo sapiens, UniProt P08684); assay: CYP inhibition assay in human liver microsomes (LC-MS/MS cocktail), testosterone to 6-β-OH-Testosterone; format: in vitro ADME
T2 construct: Pooled human liver microsomes were purchased from BD Gentest; tissue BD Gentest; host or cells: pooled human liver microsomes
Procedure: (§1) For the experimental method, the reference method was used. Briefly, incubation mixtures were composed of 0.5 mg/mL human liver microsomes; varying concentrations of CS in DW (0.1, 0.3, 1, 3, 10, 30, 100, and 200 µM) or MSM in DW (0.1, 0.3, 1, 3, 10, 30, 100, 300, and 1000 µM) or GCS in DMSO (0.1, 0.3, 1, 3, 10, 30, 100, 300, and 1000 µM); a substrate mixture in DMSO (40 µM phenacetin for CYP1A2; 2.5 µM coumarin for CYP2A6; 80 µM bupropion for CYP2B6; 10 µM diclofenac for CYP2C9; 80 µM [±]-mephenytoin for CYP2C19; 5 µM dextromethorphan for CYP2D6; 2.5 µM midazolam and 30 µM testosterone for CYP3A4); and an NADPH generating system (NGS; 0.1 M glucose-6-phosphate, 10 mg/mL β-NADP^+, and 1 U/mL glucose-6-phosphate dehydrogenase) in a total volume of 200 µL potassium phosphate buffer (0.1 M, pH 7.4). The reaction mixture, excluding NGS, underwent pre-incubation at 37 °C for 5 min, followed by further incubation with NGS for 30 min in a water bath. Well-established selective CYP inhibitors were employed as positive controls (40 µM ketoconazole for CYP3A4, 50 µM furafyllin for CYP1A2, 10 µM quinidine for CYP2D6, 125 µM ticlopidine for CYP2C19 and CYP2B6, 10 µM 8-methoxsalen for CYP2A6, and 10 µM sulfaphenazole for CYP2C9). Post incubation, the reaction was halted by adding 50 µL ice-cold 1% formic acid acetonitrile. After centrifugation at 13,200 rpm for 5 min, the supernatant was collected from the sample and subjected to analysis via an LC-MS/MS system. All experiments were performed in triplicate.
For the experimental method, the reference method was used. The LC-MS/MS system utilized in this study consisted of an Agilent 1260 binary pump HPLC system coupled with the Agilent 6460 Triple Quadrupole mass spectrometer (Agilent Technologies, Santa Clara, CA, USA), featuring an electrospray ionization source. Chromatographic separation was achieved using a Fortis C8 column (2.1 × 100 mm, 5.0 µm; Fortis Technologies Ltd., Neston, UK). The HPLC mobile phases comprised (A) 0.1% formic acid and (B) 0.1% formic acid in 90% acetonitrile. A gradient elution method was employed with an initial solvent B concentration of 15% and a flow rate of 0.25 mL/min. […] The total run time was 11.0 min, and the injection volume was 5 µL. Mass detection was conducted in the positive ion mode using multiple reaction monitoring (MRM). Specific MRM transitions for each analyte are detailed in Table S4.

[3] = tested on: seven CYP isozymes (CYP1A2, CYP2A6, CYP2B6, CYP2C9, CYP2C19, CYP2D6, CYP3A4); assay: CYP inhibition assay in human liver microsomes, statements on all tested isozymes; format: in vitro ADME
Procedure: as §1
For the experimental method, the reference method was used. The LC-MS/MS system utilized in this study consisted of an Agilent 1260 binary pump HPLC system coupled with the Agilent 6460 Triple Quadrupole mass spectrometer (Agilent Technologies, Santa Clara, CA, USA), featuring an electrospray ionization source. Chromatographic separation was achieved using a Fortis C8 column (2.1 × 100 mm, 5.0 µm; Fortis Technologies Ltd., Neston, UK). The HPLC mobile phases comprised (A) 0.1% formic acid and (B) 0.1% formic acid in 90% acetonitrile. […]

CYPs [4] = tested on: CYPs; parameters: method as in PMID 33096940; conditions: in vivo mice, after the administration of MSM; cited from earlier work
[5] = parameters: method as in PMID 16942821, PMID 37489348, PMID 31331587; conditions: typical doses as monotherapy; cited from earlier work
CYP2C9 = tested on: CYP2C9; parameters: method as in PMID 34821124, PMID 29488228; conditions: previous studies; cited from earlier work
[6] = interaction case, co-administration of CS and GCS with warfarin; cited from earlier work
CYP2D6 = biological target: T3, CYP2D6 (Homo sapiens, UniProt P10635); parameters: method as in PMID 34821124, PMID 29488228; conditions: previous studies; cited from earlier work
T3 construct: Pooled human liver microsomes were purchased from BD Gentest; tissue BD Gentest; host or cells: pooled human liver microsomes
T3 sequence (P10635 whole entry): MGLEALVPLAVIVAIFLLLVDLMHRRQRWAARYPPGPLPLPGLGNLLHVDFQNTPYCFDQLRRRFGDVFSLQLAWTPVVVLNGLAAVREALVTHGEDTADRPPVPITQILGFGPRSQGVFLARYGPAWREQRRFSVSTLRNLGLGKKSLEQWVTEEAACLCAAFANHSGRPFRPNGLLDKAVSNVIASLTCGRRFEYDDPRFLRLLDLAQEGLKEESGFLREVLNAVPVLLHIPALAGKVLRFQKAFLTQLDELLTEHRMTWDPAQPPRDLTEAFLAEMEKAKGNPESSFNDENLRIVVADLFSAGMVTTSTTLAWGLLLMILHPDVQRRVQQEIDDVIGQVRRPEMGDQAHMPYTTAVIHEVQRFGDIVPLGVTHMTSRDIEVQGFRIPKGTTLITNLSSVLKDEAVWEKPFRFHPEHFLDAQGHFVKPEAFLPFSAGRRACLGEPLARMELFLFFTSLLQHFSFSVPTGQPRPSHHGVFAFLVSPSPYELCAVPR

T1 sequence (P08684 whole entry): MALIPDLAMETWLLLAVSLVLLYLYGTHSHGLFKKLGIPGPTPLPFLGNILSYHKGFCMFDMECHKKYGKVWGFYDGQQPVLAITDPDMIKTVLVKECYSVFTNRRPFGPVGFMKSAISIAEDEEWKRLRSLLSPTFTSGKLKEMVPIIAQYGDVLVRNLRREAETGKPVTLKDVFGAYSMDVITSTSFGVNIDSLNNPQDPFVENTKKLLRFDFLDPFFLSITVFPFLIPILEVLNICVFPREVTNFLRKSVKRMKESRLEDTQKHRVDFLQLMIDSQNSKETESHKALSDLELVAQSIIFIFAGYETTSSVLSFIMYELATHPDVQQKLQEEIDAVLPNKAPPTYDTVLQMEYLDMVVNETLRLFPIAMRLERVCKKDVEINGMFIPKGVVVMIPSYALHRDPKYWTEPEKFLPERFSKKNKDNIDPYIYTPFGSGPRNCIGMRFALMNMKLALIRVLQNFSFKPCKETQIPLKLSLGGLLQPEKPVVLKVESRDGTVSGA
T2 sequence (P08684 whole entry): as above

In the case of `Cc1ccc(-c2cc(C(F)(F)F)nn2-c2ccc(S(N)(=O)=O)cc2)cc1` [Celecoxib], the “Metabolism-Associated CYPs” value (CYPs [1]) is given as “CYP2C9 (major), CYP3A4”.

In the case of `CS(C)(=O)=O` [MSM, methylsulfonylmethane], the maximum plasma concentrations ([2]; common daily dose 2000 mg/day) is listed as roughly 1100 µM, the “Remaining Activities (% of Control, n = 3)” value (CYP3A4(M); test substance 0.3 μM) is listed as 93.2 ± 13.2 % of Control and the “Remaining Activities (% of Control, n = 3)” value (CYP3A4(M); test substance 1 μM) is listed as 97.8 ± 4.3 % of Control. The “Remaining Activities (% of Control, n = 3)” value (CYP3A4(M); test substance 3 μM) was 96.2 ± 4.3 % of Control, the “Remaining Activities (% of Control, n = 3)” value (CYP3A4(M); test substance 10 μM) was 96.8 ± 4.2 % of Control and the “Remaining Activities (% of Control, n = 3)” value (CYP3A4(M); test substance 30 μM) was 96.9 ± 7.2 % of Control. For the same compound, the “Remaining Activities (% of Control, n = 3)” value (CYP3A4(M); test substance 100 μM) was 96.7 ± 6.2 % of Control, the “Remaining Activities (% of Control, n = 3)” value (CYP3A4(M); test substance 300 μM) was 97.9 ± 4.4 % of Control and the “Remaining Activities (% of Control, n = 3)” value (CYP3A4(M); test substance 1000 μM) was 99.7 ± 4.1 % of Control. The “Remaining Activities (% of Control, n = 3)” value (CYP3A4(T); test substance 0.3 μM) was 95.3 ± 2.9 % of Control, the “Remaining Activities (% of Control, n = 3)” value (CYP3A4(T); test substance 1 μM) was 98.5 ± 4.2 % of Control and the “Remaining Activities (% of Control, n = 3)” value (CYP3A4(T); test substance 3 μM) was 95.1 ± 3.5 % of Control. For the same compound, the “Remaining Activities (% of Control, n = 3)” value (CYP3A4(T); test substance 10 μM) was 98.0 ± 2.4 % of Control, the “Remaining Activities (% of Control, n = 3)” value (CYP3A4(T); test substance 30 μM) was 95.3 ± 1.7 % of Control and the “Remaining Activities (% of Control, n = 3)” value (CYP3A4(T); test substance 100 μM) was 90.8 ± 3.4 % of Control. The “Remaining Activities (% of Control, n = 3)” value (CYP3A4(T); test substance 300 μM) was 95.9 ± 4.2 % of Control, the “Remaining Activities (% of Control, n = 3)” value (CYP3A4(T); test substance 1000 μM) was 95.2 ± 0.5 % of Control and the “inhibitory effects on CYP1A2, CYP2A6, CYP2B6, CYP2C9, CYP2C19, CYP2D6, and CYP3A4” value [3] was “no inhibitory effects”. For the same compound, the “inhibition or induction effects on CYPs (intrahepatic gene expressions)” value (CYPs [4]) was “no significant inhibition or induction effects” and the “adverse effects in clinical trials” value [5] was “do not exhibit significant adverse effects”.

In the case of `COc1cccc(C2(O)CCCCC2CN(C)C)c1` (centres unmarked) [Tramadol], the “Metabolism-Associated CYPs” value (CYPs [1]) is given as “CYP2D6 (major), CYP3A4, CYP2B6”.

For `Cc1cnc(NC(=O)C2=C(O)c3ccccc3S(=O)(=O)N2C)s1` [Meloxicam], the “Metabolism-Associated CYPs” value (CYPs [1]) is given as “CYP2C9 (major), CYP3A4”.

For `CCOC(=O)C1(c2ccccc2)CCN(C)CC1` [Pethidine], the “Metabolism-Associated CYPs” value (CYPs [1]) is listed as “CYP2B6 (major), CYP3A4 (major), CYP2C19”.

In the case of `CC(=O)Nc1ccc(O)cc1` [Acetaminophen], the “Metabolism-Associated CYPs” value (CYPs [1]) is given as “CYP3A4 (major), CYP2El, CYP1A2, CYP2D6”.

In the case of `O=C(O)Cc1ccccc1Nc1c(Cl)cccc1Cl` [Diclofenac], the “Metabolism-Associated CYPs” value (CYPs [1]) is given as “CYP2C8, CYP2C9 (major), CYP2C18, CYP2C19, CYP2B6, CYP3A4”.

For `CC(C)Cc1ccc(C(C)C(=O)O)cc1` (centres unmarked) [Ibuprofen], the “Metabolism-Associated CYPs” value (CYPs [1]) is listed as “CYP2C8 (major) CYP2C9 (major), CYP2C19, CYP3A4”.

In the case of Chondroitin sulfate [CS], the maximum plasma concentrations ([2]; common daily dose 1200 mg/day) is listed as “approximately 70 µM”, the “inhibitory effects on CYP2C9” value (CYP2C9) is listed as “no inhibitory effects” and the “INR on co-administration with warfarin” value [6] is listed as “elevated INR”. The “inhibitory effects on CYP2D6” value (CYP2D6) was “no inhibitory effects”, the “Remaining Activities (% of Control, n = 3)” value (CYP3A4(M); test substance 0.1 μM) was 97.6 ± 3.8 % of Control and the “Remaining Activities (% of Control, n = 3)” value (CYP3A4(M); test substance 0.3 μM) was 99.1 ± 3.1 % of Control. For the same compound, the “Remaining Activities (% of Control, n = 3)” value (CYP3A4(M); test substance 1 μM) was 91.2 ± 10.6 % of Control, the “Remaining Activities (% of Control, n = 3)” value (CYP3A4(M); test substance 3 μM) was 87.9 ± 27.9 % of Control and the “Remaining Activities (% of Control, n = 3)” value (CYP3A4(M); test substance 10 μM) was 101.4 ± 4.9 % of Control. For the same compound, the “Remaining Activities (% of Control, n = 3)” value (CYP3A4(M); test substance 30 μM) was 106.6 ± 5 % of Control, the “Remaining Activities (% of Control, n = 3)” value (CYP3A4(M); test substance 100 μM) was 113.6 ± 8.4 % of Control and the “Remaining Activities (% of Control, n = 3)” value (CYP3A4(M); test substance 200 μM) was 114.6 ± 2.8 % of Control. The “inhibitory effects on CYP1A2, CYP2A6, CYP2B6, CYP2C9, CYP2C19, CYP2D6, and CYP3A4” value [3] was “no inhibitory effects” and the “adverse effects in clinical trials” value [5] was “do not exhibit significant adverse effects”.
